Patent EP2046786B1, “POLYMORPHIC FORMS OF ZIPRASIDONE SULFATES” (KRKA, priority 2006, dated 2008)
Where a name gives a salt, the structure may show the parent alone.

Experiments:
[1] = Water sorption analysis (0 % RH to 95 % RH, 25°C); assay type: physicochemical; conditions: for release of crystal water at 0 % RH: nitrogen flow rate 200 ml/min; for RH at which water sorption started: two 11-step circles from 0 % RH to 95 % RH
Experimental: An amount of 20 mg of zipasidone hydrogensulfate dihydrate was exposed to a watersorption analysis (Surface Measurement Systems Ltd., London, UK; two complete 11-step circles from 0 % RH to 95 % RH at the temperature 25°C and nitrogen flow rate 200 ml/min; minimal retention time at the step when dm/dt < 0.002% was 10 minutes and maximal 360 minutes) and compared to the same test of Ziprasidone hydrochloride monohydrate.

[2] = Solubility in water (pH 6.8) + 2 % SDS; assay type: physicochemical; conditions: water + 2 % SDS, aqueous with cosolvent or surfactant or cyclodextrin; water (pH 6.8) + 2 % SDS at room temperature

SMILES | release of crystal water at 0 % RH [1] | RH at which water sorption started [1] [% RH] | stability to hydratation ([1]; compared with Ziprasidone hydrochloride salt) | solubility [2] [µg/mL]
O=C1Cc2cc(CCN3CCN(c4nsc5ccccc45)CC3)c(Cl)cc2N1 [Ziprasidone hydrochloride monohydrate, reference compound] | release crystal water | 30 | – | –
O.O.O=C1Cc2cc(CCN3CCN(c4nsc5ccccc45)CC3)c(Cl)cc2N1.O=S(=O)(O)O [Ziprasidone hydrogensulfate dihydrate, 5-[2-[4-(1,2-benzisothiazol-3-yl) -1-piperazinyl]ethyl] -6-chloro-1,3-dihydro-2H-indol-2-one hydrogensulfate dihydrate] | does not release crystal water | 50 | more stable to hydratation | 360
